Reference: US11472807B2, “Purine derivatives for use as medicament and for use in treating neurodegenerative or neuro-inflammatory disorders” (COMMISSARIAT À L'ENERGIE ATOMIQUE ET AUX ENERGIES …, priority 2017, dated 2022)

System: IL-6 cytokine
Experiment: Secreted IL-6 in LPS-treated human primary glial cells (MSD ELISA)
Assay type: cell-based
Details: LPS 6 h, then purine derivative 10 μM for 18 h
Description: For assessing the cytokine production, human primary glial cells were grown until confluent on coated collagen 12-well plates. Cells were serum-starved in glial serum-free medium for 2 h and treated with LPS for 6 h before treatment with purine derivatives (10 μM) for an additional 18 h. Supernatants were harvested and secreted IL-6 cytokine was measured by ELISA by the mean of the Meso Scale Discovery (MSD) technology. Briefly, a 96-well plate having 1 spot pre-coated with the corresponding antibody is provided by MSD Technology. Before adding the samples, a first saturation step is required. Once the plate is saturated and washed, 25 μL of sample (or calibrators) per well are loaded and incubated for 1 hour. Then the plate is washed and incubated with 25 μL of the Detection Antibody solution (MSD SULFO-TAG) for 1 hour. At the end of the incubation, the plate is washed and then a chemical solution (Read buffer 1×) is added allowing electrochemiluminescence. After a short incubation (5 min) at room temperature, the plate is read on the QUICK Plex SQ120. The instrument measures the intensity of the light electrochemiluminescence.

Structure (SMILES) | Anti-inflammatory Compounds (secreted IL-6)
CC[C@H](CO)Nc1nc(N(C)Cc2ccccc2)c2ncn(C(C)C)c2n1 [Aftin-4] | +(>1 μM) (“+” means that the tested compound shows an anti-inflammatory and/or attenuation of Tau's phosphorylation property with a concentration higher than 1 μM)
CC[C@H](CO)Nc1nc(N(CC)Cc2ccccc2)c2ncn(C(C)C)c2n1 [Compound 13] | +(>1 μM) (“+” means that the tested compound shows an anti-inflammatory and/or attenuation of Tau's phosphorylation property with a concentration higher than 1 μM)
CC[C@H](CO)Nc1nc(N(C)Cc2ccccc2)c2ncn(C3CCCC3)c2n1 [Compound 14] | +(>1 μM) (“+” means that the tested compound shows an anti-inflammatory and/or attenuation of Tau's phosphorylation property with a concentration higher than 1 μM)
CCN(Cc1ccccc1)c1nc(N[C@@H](CO)C(C)C)nc2c1ncn2C1CCCC1 [Compound 15] | +(>1 μM) (“+” means that the tested compound shows an anti-inflammatory and/or attenuation of Tau's phosphorylation property with a concentration higher than 1 μM)
CCCN(Cc1ccccc1)c1nc(N[C@H](CC)CO)nc2c1ncn2C(C)C [Compound 20] | +(>1 μM) (“+” means that the tested compound shows an anti-inflammatory and/or attenuation of Tau's phosphorylation property with a concentration higher than 1 μM)
CCN(CC)CCNc1nc(N(CC)Cc2ccccc2)c2ncn(C3CCCC3)c2n1 [Compound 22] | +(>1 μM) (“+” means that the tested compound shows an anti-inflammatory and/or attenuation of Tau's phosphorylation property with a concentration higher than 1 μM)
CC[C@@H](CO)Nc1nc(N(C)c2ccccc2)c2ncn(C(C)C)c2n1 [Compound 26] | +(>1 μM) (“+” means that the tested compound shows an anti-inflammatory and/or attenuation of Tau's phosphorylation property with a concentration higher than 1 μM)
CC[C@H](CO)Nc1nc(OCc2ccccc2)c2ncn(C(C)C)c2n1 [Compound 31] | +(>1 μM) (“+” means that the tested compound shows an anti-inflammatory and/or attenuation of Tau's phosphorylation property with a concentration higher than 1 μM)
CC[C@H](CO)Nc1nc(NCc2ccccc2)c2ncn(C(C)C)c2n1 [Roscovitine, (R)-roscovitine, reference compound] | +(>1 μM) (“+” means that the tested compound shows an anti-inflammatory and/or attenuation of Tau's phosphorylation property with a concentration higher than 1 μM)

System: p-Tau (Thr212)
Experiment: p-Tau (Thr212)/total Tau in rat cortical neurons (western-blot)
Assay type: cell-based
Details: purine derivative 10 μM (A100), 18 h
Description: Cells were lysed in freshly prepared lysis buffer containing in mM: Tris-HCl 50, EDTA 2, EGTA 2, NaCl 100, SDS 0.2%, Triton X-100 1%, proteases inhibitors (Roche Protease Inhibitor Cocktail #04693116001), phosphatases inhibitors (in mM: ammonium molybdate 0.1, β-glycerophosphate 20, NaF 50, Na-pyrophosphate 10, Orthovanadate 1). Protein concentration was measured by the Bradford assay and Laemmli buffer was added to each lysate. Proteins (10 μg per lane) were resolved on 12% Nu-PAGE (LifeTechonoliges #NP0342BOX) using MOPS SDS running buffer and transferred on Immobilon-FL PVDF membrane (Millipore #IPFL00010). Membranes were blocked one hour in TBS Tween20 0.1% BSA 5% at room temperature. Primary antibodies were incubated O/N at 4° C. and detected by Alexa 488 conjugated secondary antibodies (Life Techonologies #A11034 and A11029) diluted 1:1.000 in TBS Tween20 0.05% and 1% BSA. The antibodies specific for pThr212-Tau (Abcam #ab4842), pThr181-Tau (AbCam #ab75679), Tau (Millipore #MAB361), APP (Millipore #07-667) and Actin (Millipore #MAB1501) were diluted in TBS Tween20 0.05% and 1% BSA. Fluorescent signal was visualized with the VersaDoc™ Imaging System (Bio-Rad Laboratories) and quantified with Quantity One® Analysis Software. Grey levels measured for bands of interest were normalized to the corresponding actin bands.
For assessing the protein Tau's phosphorylation, the culture media of rat cortical neurons were replaced by incubation medium containing purine derivatives at 10 μM (A100) or vehicle (0.1% DMSO; Control). After 18 h incubation p-Tau (Thr212) and total Tau were quantified in the cellular extracts by western-blot.

Structure (SMILES) | Attenuation of P-Tau/Tau ratio
CC[C@H](CO)Nc1nc(N(CC)Cc2ccccc2)c2ncn(C(C)C)c2n1 [Compound 13] | +(>1 μM) (“+” means that the tested compound shows an anti-inflammatory and/or attenuation of Tau's phosphorylation property with a concentration higher than 1 μM)
CC[C@H](CO)Nc1nc(N(C)Cc2ccccc2)c2ncn(C3CCCC3)c2n1 [Compound 14] | +(>1 μM) (“+” means that the tested compound shows an anti-inflammatory and/or attenuation of Tau's phosphorylation property with a concentration higher than 1 μM)
CCN(Cc1ccccc1)c1nc(N[C@@H](CO)C(C)C)nc2c1ncn2C1CCCC1 [Compound 15] | +(>1 μM) (“+” means that the tested compound shows an anti-inflammatory and/or attenuation of Tau's phosphorylation property with a concentration higher than 1 μM)
CCCN(Cc1ccccc1)c1nc(N[C@H](CC)CO)nc2c1ncn2C(C)C [Compound 20] | +(>1 μM) (“+” means that the tested compound shows an anti-inflammatory and/or attenuation of Tau's phosphorylation property with a concentration higher than 1 μM)
CCN(CC)CCNc1nc(N(CC)Cc2ccccc2)c2ncn(C3CCCC3)c2n1 [Compound 22] | +(>1 μM) (“+” means that the tested compound shows an anti-inflammatory and/or attenuation of Tau's phosphorylation property with a concentration higher than 1 μM)
CC[C@H](CO)Nc1nc(OCc2ccccc2)c2ncn(C(C)C)c2n1 [Compound 31] | +(>1 μM) (“+” means that the tested compound shows an anti-inflammatory and/or attenuation of Tau's phosphorylation property with a concentration higher than 1 μM)
